In brackets after ≈: the same amount, converted by molar mass. Activity calls are given as the source filed them. No cut-off for these calls is given here.
Test system: not listed separately
Assay: Oral bioavailability in Sprague-Dawley rat at 28 mg/kg
Assay type: ADME, organism-based
Details: in vivo

Row | Compound | bioavailability
1 | O=C(Cc1ccc2c(c1)B(O)OC2)NS(=O)(=O)c1ccccc1 | > 100%

Test system: not listed separately
Assay: Dose normalized AUC in Sprague-Dawley rat at 28 mg/kg,po
Assay type: ADME, organism-based
Details: in vivo

Row | Compound | AUC/dose
2 | O=C(Cc1ccc2c(c1)B(O)OC2)NS(=O)(=O)c1ccccc1 | 2120 kg·ng·h/mL/mg

Test system: not listed separately
Assay: Half life in Sprague-Dawley rat at 28 mg/kg,po
Assay type: ADME, organism-based
Details: in vivo

Row | Compound | half-life
3 | O=C(Cc1ccc2c(c1)B(O)OC2)NS(=O)(=O)c1ccccc1 | 3.88 h

Test system: not listed separately
Assay: Cmax in Sprague-Dawley rat at 28 mg/kg,po
Assay type: ADME, organism-based
Parameters: dose 28 mg/kg, route po
Details: in vivo

Row | Compound | Cmax
4 | O=C(Cc1ccc2c(c1)B(O)OC2)NS(=O)(=O)c1ccccc1 | 53000 ng/mL

Test system: not listed separately
Assay: Cmax in Sprague-Dawley rat at 1 mg/kg,iv
Assay type: ADME, organism-based
Parameters: dose 1 mg/kg, route iv
Details: in vivo

Row | Compound | Cmax
5 | O=C(Nc1ccc2c(c1)B(O)OC2)c1cccn(Cc2ccccc2)c1=O | 792 ng/mL

Test system: not listed separately
Assay: Cmax in Sprague-Dawley rat at 5 mg/kg,po
Assay type: ADME, organism-based
Parameters: dose 5 mg/kg, route po
Details: in vivo

Row | Compound | Cmax
6 | OB1OCc2ccc(OCc3nnn[nH]3)cc21 | 71 ng/mL
7 | C[C@H](C(=O)O)c1ccc2c(c1)B(O)OC2 | 1730 ng/mL
8 | OB1OCc2ccc(Cc3nnn[nH]3)cc21 | 283 ng/mL
9 | O=C(Cc1ccc2c(c1)B(O)OC2)NS(=O)(=O)c1ccccc1 | 1290 ng/mL
10 | CC(C)(c1ccc2c(c1)B(O)OC2)c1nnn[nH]1 | 1180 ng/mL
11 | O=C(Nc1ccc2c(c1)B(O)OC2)c1cccn(Cc2ccccc2)c1=O | 1420 ng/mL
12 | C[C@@H](C(=O)O)c1ccc2c(c1)B(O)OC2 | 1860 ng/mL

Test system: not listed separately
Assay: Volume of distribution at steady state in Sprague-Dawley rat at 5 mg/kg,po or 1 mg/kg,iv
Assay type: ADME, organism-based
Details: in vivo

Row | Compound | Vdss
13 | O=C(Nc1ccc2c(c1)B(O)OC2)c1cccn(Cc2ccccc2)c1=O | 1.7 L/kg

Test system: not listed separately
Assay: Half life in Sprague-Dawley rat at 1 mg/kg, iv
Assay type: ADME, organism-based
Details: in vivo

Row | Compound | half-life
14 | O=C(Nc1ccc2c(c1)B(O)OC2)c1cccn(Cc2ccccc2)c1=O | 6.4 h

Test system: not listed separately
Assay: Half life in Sprague-Dawley rat at 5 mg/kg,po
Assay type: ADME, organism-based
Details: in vivo

Row | Compound | half-life
15 | OB1OCc2ccc(OCc3nnn[nH]3)cc21 | 1.3 h
16 | C[C@H](C(=O)O)c1ccc2c(c1)B(O)OC2 | 1.14 h
17 | OB1OCc2ccc(Cc3nnn[nH]3)cc21 | 3.67 h
18 | O=C(Cc1ccc2c(c1)B(O)OC2)NS(=O)(=O)c1ccccc1 | 7.29 h
19 | CC(C)(c1ccc2c(c1)B(O)OC2)c1nnn[nH]1 | 1.05 h
20 | O=C(Nc1ccc2c(c1)B(O)OC2)c1cccn(Cc2ccccc2)c1=O | 4.5 h
21 | C[C@@H](C(=O)O)c1ccc2c(c1)B(O)OC2 | 16.6 h

Test system: not listed separately
Assay: Dose normalized AUC in Sprague-Dawley rat at 1 mg/kg, iv
Assay type: ADME, organism-based
Details: in vivo

Row | Compound | AUC/dose
22 | O=C(Nc1ccc2c(c1)B(O)OC2)c1cccn(Cc2ccccc2)c1=O | 4210 kg·ng·h/mL/mg

Test system: not listed separately
Assay: Dose normalized AUC in Sprague-Dawley rat at 5 mg/kg,po
Assay type: ADME, organism-based
Details: in vivo

Row | Compound | AUC/dose
23 | OB1OCc2ccc(OCc3nnn[nH]3)cc21 | 38 kg·ng·h/mL/mg
24 | C[C@H](C(=O)O)c1ccc2c(c1)B(O)OC2 | 451 kg·ng·h/mL/mg
25 | OB1OCc2ccc(Cc3nnn[nH]3)cc21 | 103 kg·ng·h/mL/mg
26 | O=C(Cc1ccc2c(c1)B(O)OC2)NS(=O)(=O)c1ccccc1 | 560 kg·ng·h/mL/mg
27 | CC(C)(c1ccc2c(c1)B(O)OC2)c1nnn[nH]1 | 612 kg·ng·h/mL/mg
28 | O=C(Nc1ccc2c(c1)B(O)OC2)c1cccn(Cc2ccccc2)c1=O | 1120 kg·ng·h/mL/mg
29 | C[C@@H](C(=O)O)c1ccc2c(c1)B(O)OC2 | 429 kg·ng·h/mL/mg

Test system: not listed separately
Assay: Oral bioavailability in Sprague-Dawley rat at 5 mg/kg
Assay type: ADME, organism-based
Details: in vivo

Row | Compound | bioavailability
30 | OB1OCc2ccc(OCc3nnn[nH]3)cc21 | 13%
31 | C[C@H](C(=O)O)c1ccc2c(c1)B(O)OC2 | 88%
32 | OB1OCc2ccc(Cc3nnn[nH]3)cc21 | 24%
33 | O=C(Cc1ccc2c(c1)B(O)OC2)NS(=O)(=O)c1ccccc1 | 28%
34 | CC(C)(c1ccc2c(c1)B(O)OC2)c1nnn[nH]1 | 68%
35 | O=C(Nc1ccc2c(c1)B(O)OC2)c1cccn(Cc2ccccc2)c1=O | 27%
36 | C[C@@H](C(=O)O)c1ccc2c(c1)B(O)OC2 | 83%

Test system: not listed separately
Assay: (§1) Induction of HbF production in human erythroid progenitor cells at upto 33 uM measured after 3 days by ELISA assay
Assay type: functional, cell-based
Details: Erythroid progenitor cell, 72 h

Row | Compound | EC50
37 | NCc1ccc(S(=O)(=O)NC(=O)CCc2ccc3c(c2)B(O)OC3)cc1 | 6030 nM
38 | COc1cc2c(cc1C(=O)NS(=O)(=O)c1ccccc1)B(O)OC2 | > 31600 nM
39 | CC(C)(C)OC(=O)NCc1ccc(S(=O)(=O)NC(=O)CCc2ccc3c(c2)B(O)OC3)cc1 | 912 nM

Test system: Erythroid progenitor cell
Assay: as §1
Assay type: functional, cell-based
Details: time 3.0 day

Row | Compound | Activity
40 | O=C(Nc1cccc(B(O)O)c1)c1cccn(Cc2ccccc2)c1=O | inactive
41 | Cc1ccc(NC(=O)c2cccn(Cc3ccccc3)c2=O)cc1B(O)O | inactive

Test system: not listed separately
Assay: Induction of HbF production in human erythroid progenitor cells measured after 3 days by ELISA assay
Assay type: functional, cell-based
Details: Erythroid progenitor cell, 72 h, read-out: EC50

Row | Compound | EC50
42 | C[C@@H](C(=O)O)c1ccc2c(c1)B(O)OC2 | 40 nM

Same assay, conditions: Erythroid progenitor cell, 72 h, read-out: pEC50 (converted)

Row | Compound | EC50
43 | O=C(O)c1cccn1-c1ccc2c(c1)B(O)OC2 | 11500 nM
44 | OB1OCc2ccc(OCc3nnn[nH]3)cc21 | 275 nM
45 | O=C(Nc1cccn(Cc2ccccc2)c1=O)c1ccc2c(c1F)B(O)OC2 | 91.2 nM
46 | O=C(Nc1cccc(B(O)O)c1)c1cccn(Cc2ccccc2)c1=O | > 31600 nM
47 | O=C(O)CNC(=O)c1ccc2c(c1)B(O)OC2 | > 31600 nM
48 | NC(=O)c1ccc2c(c1)B(O)OC2 | > 31600 nM
49 | O=C(Cc1ccc2c(c1)B(O)OC2)NS(=O)(=O)C1CC1 | 18.2 nM
50 | O=C(NS(=O)(=O)c1ccc2c(c1)B(O)OC2)c1ccccc1 | 110 nM
51 | C[C@H](C(=O)O)c1ccc2c(c1)B(O)OC2 | 871 nM
52 | OB1OCc2ccc(Cc3nnn[nH]3)cc21 | 9.12 nM
53 | O=C(Cc1ccc2c(c1)B(O)OC2)NS(=O)(=O)c1ccccc1 | 64.6 nM
54 | CC(C)(c1ccc2c(c1)B(O)OC2)c1nnn[nH]1 | 26.3 nM
55 | Cc1ccc(NC(=O)c2cccn(Cc3ccccc3)c2=O)cc1B(O)O | > 31600 nM
56 | C[C@@H](C(=O)O)c1ccc2c(c1)B(O)OC2 | 39.8 nM

Test system: not listed separately
Assay: Solubility of the compound in FaSSIF
Assay type: ADME
Details: not given

Row | Compound | solubility
57 | O=C(O)c1cccn1-c1ccc2c(c1)B(O)OC2 | > 1000 µg/mL
58 | OB1OCc2ccc(OCc3nnn[nH]3)cc21 | > 1000 µg/mL
59 | O=C(Nc1cccn(Cc2ccccc2)c1=O)c1ccc2c(c1F)B(O)OC2 | 4 µg/mL (≈ 0.0106 mM)
60 | O=C(Cc1ccc2c(c1)B(O)OC2)NS(=O)(=O)C1CC1 | 700 µg/mL (≈ 2.37 mM)
61 | O=C(NS(=O)(=O)c1ccc2c(c1)B(O)OC2)c1ccccc1 | 980 µg/mL (≈ 3.09 mM)
62 | C[C@H](C(=O)O)c1ccc2c(c1)B(O)OC2 | 950 µg/mL (≈ 4.61 mM)
63 | OB1OCc2ccc(Cc3nnn[nH]3)cc21 | > 1000 µg/mL
64 | O=C(Cc1ccc2c(c1)B(O)OC2)NS(=O)(=O)c1ccccc1 | 900 µg/mL (≈ 2.72 mM)
65 | CC(C)(c1ccc2c(c1)B(O)OC2)c1nnn[nH]1 | 930 µg/mL (≈ 3.81 mM)
66 | C[C@@H](C(=O)O)c1ccc2c(c1)B(O)OC2 | > 1000 µg/mL

Test system: not listed separately
Assay: Cmax in Sprague-Dawley rat at 10 mg/kg,po
Assay type: ADME, organism-based
Parameters: dose 10 mg/kg, route po
Details: in vivo

Row | Compound | Cmax
67 | CC(C)(c1ccc2c(c1)B(O)OC2)c1nnn[nH]1 | 3880 ng/mL
68 | C[C@@H](C(=O)O)c1ccc2c(c1)B(O)OC2 | 2710 ng/mL

Test system: not listed separately
Assay: Half life in Sprague-Dawley rat at 10 mg/kg,po
Assay type: ADME, organism-based
Details: in vivo

Row | Compound | half-life
69 | CC(C)(c1ccc2c(c1)B(O)OC2)c1nnn[nH]1 | 1.53 h
70 | C[C@@H](C(=O)O)c1ccc2c(c1)B(O)OC2 | 3.03 h

Test system: not listed separately
Assay: Dose normalized AUC in Sprague-Dawley rat at 10 mg/kg,po
Assay type: ADME, organism-based
Details: in vivo

Row | Compound | AUC/dose
71 | CC(C)(c1ccc2c(c1)B(O)OC2)c1nnn[nH]1 | 1049 kg·ng·h/mL/mg
72 | C[C@@H](C(=O)O)c1ccc2c(c1)B(O)OC2 | 283 kg·ng·h/mL/mg

Test system: not listed separately
Assay: Oral bioavailability in Sprague-Dawley rat at 10 mg/kg
Assay type: ADME, organism-based
Details: in vivo

Row | Compound | bioavailability
73 | CC(C)(c1ccc2c(c1)B(O)OC2)c1nnn[nH]1 | > 100%
74 | C[C@@H](C(=O)O)c1ccc2c(c1)B(O)OC2 | 55%

Test system: not listed separately
Assay: Cmax in Sprague-Dawley rat at 100 mg/kg,po
Assay type: ADME, organism-based
Parameters: dose 100 mg/kg, route po
Details: in vivo

Row | Compound | Cmax
75 | OB1OCc2ccc(OCc3nnn[nH]3)cc21 | 4900 ng/mL
76 | C[C@H](C(=O)O)c1ccc2c(c1)B(O)OC2 | 47200 ng/mL

Test system: not listed separately
Assay: Half life in Sprague-Dawley rat at 100 mg/kg,po
Assay type: ADME, organism-based
Details: in vivo

Row | Compound | half-life
77 | OB1OCc2ccc(OCc3nnn[nH]3)cc21 | 3.54 h
78 | C[C@H](C(=O)O)c1ccc2c(c1)B(O)OC2 | 4.53 h

Test system: not listed separately
Assay: Dose normalized AUC in Sprague-Dawley rat at 100 mg/kg,po
Assay type: ADME, organism-based
Details: in vivo

Row | Compound | AUC/dose
79 | OB1OCc2ccc(OCc3nnn[nH]3)cc21 | 184 kg·ng·h/mL/mg
80 | C[C@H](C(=O)O)c1ccc2c(c1)B(O)OC2 | 683 kg·ng·h/mL/mg

Test system: not listed separately
Assay: Oral bioavailability in Sprague-Dawley rat at 100 mg/kg
Assay type: ADME, organism-based
Details: in vivo

Row | Compound | bioavailability
81 | OB1OCc2ccc(OCc3nnn[nH]3)cc21 | 62%
82 | C[C@H](C(=O)O)c1ccc2c(c1)B(O)OC2 | > 100%

Reference: ChEMBL document CHEMBL5252551, “A hit deconstruction approach for the discovery of fetal hemoglobin inducers” (Bioorg Med Chem Lett, 2018)
